Results taken from patent US9809598B2 (Merck Patent GmbH, priority 2014, dated 2017).
pIC50: −log10 of the molar value. Read-outs that look alike come from different tables or passages of the source.

Tests used:
TNKS1 = target: T1, TNKS1 (Homo sapiens, UniProt O95271); assay: TNKS1 activity ELISA (autoparsylation assay); format: biochemical; conditions: GST-tagged Tnks-1 (1023-1327 aa)
T1 construct: GST-tagged Tnks-1 (1023-1327 aa, prepared in-house); made in house
Procedure: (§1) Description of the TNKS1 and TNKS2 ELISA Assay
(§2) Biochemical Activity Testing of TNKS 1 and 2: Activity ELISA (Autoparsylation Assay)
(§3) For analysis of autoparsylation activity of TNKS 1 and 2 an activity ELISA iss performed: In the first step GST tagged TNKS is captured on a Glutathione coated plate. Then the activity assay with biotinylated NAD is performed in the absence/presence of the compounds. During the enzymatic reaction GST tagged TNKS transfers biotinylated ADP-ribose to itself from biotinylated NAD as co-substrate. For the detection streptavidin-HRP conjugate is added that binds to the biotinylated TNKS and is thereby captured to the plates. The amount of biotinylated resp. autoparsylated TNKS is detected with a luminescence substrate for HRP. The level of the luminescence signal correlats directly with the amount of autoparsylated TNKS and therefore with activity of TNKS.
(§4) The activity ELISA is performed in 384 well Glutathione coated microtiter plates (Express capture Glutathione coated plate, Biocat, Heidelberg, Germany). The plates are pre-equilibrated with PBS. […] The plates are washed 3 times with PBS-Tween-20. The wells are blocked by incubation at room temperature for 20 minutes with 50 μl blocking buffer (PBS, 0.05% Tween-20, 0.5% BSA). Afterwards the plates are washed 3 times with PBS-Tween-20. […] The reaction is stopped by 3 times washing with PBS-Tween-20. For the detection 50 μl of 20 ng/μl Streptavidin, HRP conjugate (MoBiTec, Göttingen, Germany) in PBS/0.05% Tween-20/0.01% BSA are added and the plates are incubated for 30 minutes at room temperature. After three times washing with PBS-Tween-20 50 μl of SuperSignal ELISA Femto Maximum sensitivity substrate solution (ThermoFisherScientific (Pierce), Bonn, Germany) are added. Following a 1 minute incubation at room temperature luminescence signals are measured with an Envision multimode reader (Perkin Elmer LAS Germany GmbH) at 700 nm. The full value used is the inhibitor-free reaction. […] The inhibitory values (IC50) are determined using either the program Symyx Assay Explorer® or Condosseo® from GeneData.

Tankyrases = conditions: read-out: EC50 [M] TNKS cellular assay; DLD1 cells, 24 hours, Axin2 increase
Procedure: Measurement of Cellular Inhibition of Tankyrase
Cells of the colon carcinoma cell line DLD1 are plated in 96 well plates with 1.5×10^4 cells per well. Next day, cells are treated with a serial dilution of test compound in seven steps as triplicates with a final DMSO concentration of 0.3%. […] The amount of isolated Axin2 protein is determined in a Luminex^200 machine (Luminex Corporation) according to the manufacturer's instruction by counting 100 events per well. […] As controls cells are treated with solvent alone (neutral control) and with a Tankyrase reference inhibitor IWR-2 (3E−06 M) which refers as control for maximum increase of Axin2. For analysis, the obtained data are normalized against the untreated solvent control and fitted for determination of the EC50 values using the Assay Explorer software (Accelrys).

PARP-1 = target: T2, PARP-1 (Homo sapiens, UniProt P09874); assay: PARP-1 autoparsylation assay (HTRF); format: biochemical; conditions: His-tagged Parp-1, autoparsylation HTRF
T2 construct: purchased Enzo Life Sciences GmbH, Lörrach, Germany
T2 sequence (P09874 whole entry): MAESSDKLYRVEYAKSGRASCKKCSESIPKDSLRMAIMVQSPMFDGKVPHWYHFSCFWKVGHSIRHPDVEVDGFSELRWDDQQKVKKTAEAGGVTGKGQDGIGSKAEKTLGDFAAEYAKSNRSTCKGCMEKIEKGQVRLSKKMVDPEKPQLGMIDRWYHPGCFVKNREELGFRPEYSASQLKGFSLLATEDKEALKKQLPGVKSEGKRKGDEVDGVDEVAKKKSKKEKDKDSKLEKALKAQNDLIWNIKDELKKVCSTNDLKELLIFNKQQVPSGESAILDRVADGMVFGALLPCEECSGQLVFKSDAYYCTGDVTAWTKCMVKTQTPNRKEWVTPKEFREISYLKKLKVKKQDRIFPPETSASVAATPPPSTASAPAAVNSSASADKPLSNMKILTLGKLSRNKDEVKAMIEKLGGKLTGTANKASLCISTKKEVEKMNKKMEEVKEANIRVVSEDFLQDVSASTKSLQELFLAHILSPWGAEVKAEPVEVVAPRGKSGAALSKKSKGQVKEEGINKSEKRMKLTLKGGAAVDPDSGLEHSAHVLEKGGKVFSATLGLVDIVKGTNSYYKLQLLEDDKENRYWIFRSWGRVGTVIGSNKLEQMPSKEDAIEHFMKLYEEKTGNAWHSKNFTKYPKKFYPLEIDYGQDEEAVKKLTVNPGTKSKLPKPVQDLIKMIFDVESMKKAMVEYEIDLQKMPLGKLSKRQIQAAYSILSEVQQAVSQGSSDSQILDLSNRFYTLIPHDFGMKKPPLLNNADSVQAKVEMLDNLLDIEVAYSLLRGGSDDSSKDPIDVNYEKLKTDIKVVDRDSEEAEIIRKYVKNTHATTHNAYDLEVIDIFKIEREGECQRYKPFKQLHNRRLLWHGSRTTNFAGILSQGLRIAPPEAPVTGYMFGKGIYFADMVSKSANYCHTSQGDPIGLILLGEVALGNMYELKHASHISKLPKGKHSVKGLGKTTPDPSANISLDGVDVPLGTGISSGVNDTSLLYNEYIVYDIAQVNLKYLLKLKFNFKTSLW
Text: Description of the PARP1 Assay
Biochemical Activity Testing of PARP-1: Autoparsylation Assay
The autoparsylation assay is run in two steps: the enzymatic reaction in which His-tagged Parp-1 transfers biotinylated ADP-ribose/ADP-ribose to itself from biotinylated NAD/NAD as co-substrate and the detection reaction where a time resolved FRET between cryptate labelled anti-His antibody bound to the His tag of the enzyme and Xlent® labelled-streptavidin bound the biotin-parsylation residue is analysed. The autoparsylation activity is detectable directly via the increase in HTRF signal.
The autoparsylation assay is performed as 384-well HTRF® (Cisbio, Codolet, France) assay format in Greiner low volume nb 384-well microtiter plates. […] The ratio of the emission signals is determined. The full value used is the inhibitor-free reaction. The pharmacological zero value used is Olaparib (LClabs, Woburn, US) in a final concentration of 1 μM. The inhibitory values (IC50) are determined using either the program Symyx Assay Explorer® or Condosseo® from GeneData.

TNKS2 = target: T3, TNKS2 (Homo sapiens, UniProt Q9H2K2); assay: TNKS2 activity ELISA (autoparsylation assay); format: biochemical; conditions: for IC50: GST-tagged Tnks-2 (873-1166 aa), read-out: IC50 [M] TNKS2 ELISA
T3 construct: GST-tagged Tnks-2 (873-1166 aa, prepared in-house); made in house
T3 sequence (Q9H2K2 873-1166): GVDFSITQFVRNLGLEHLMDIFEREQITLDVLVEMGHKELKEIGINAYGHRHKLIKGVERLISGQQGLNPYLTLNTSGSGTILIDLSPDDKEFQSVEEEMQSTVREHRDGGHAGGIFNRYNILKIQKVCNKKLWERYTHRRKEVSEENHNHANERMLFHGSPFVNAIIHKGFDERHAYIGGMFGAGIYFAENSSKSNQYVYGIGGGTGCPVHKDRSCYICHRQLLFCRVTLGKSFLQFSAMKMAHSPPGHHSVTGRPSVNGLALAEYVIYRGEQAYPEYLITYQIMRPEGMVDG
Procedure: as §1, §2, §3, §4

T1 sequence (O95271 1023-1327): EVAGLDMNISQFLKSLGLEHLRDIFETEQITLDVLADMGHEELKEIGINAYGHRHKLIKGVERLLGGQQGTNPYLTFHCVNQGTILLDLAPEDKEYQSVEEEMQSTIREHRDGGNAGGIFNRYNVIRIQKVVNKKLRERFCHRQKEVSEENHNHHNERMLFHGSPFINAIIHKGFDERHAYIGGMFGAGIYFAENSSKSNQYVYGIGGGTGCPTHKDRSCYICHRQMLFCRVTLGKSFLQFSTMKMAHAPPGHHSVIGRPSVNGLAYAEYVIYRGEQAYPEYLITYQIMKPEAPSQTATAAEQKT

SMILES | IC50 (TNKS1) [nM] | EC50 (Tankyrases) [M] | IC50 (PARP-1) [nM] | IC50 (TNKS2) [M] | pIC50 (TNKS2)
Cc1scc2c(=O)[nH]c(CCCC(=O)N3CCC(c4cnc(N)c(-c5ncccn5)c4)CC3)nc12 [Compound C116, 2-[4-(6-Amino-5-pyrimidin-2-yl-3′,4′,5′,6′-tetrahydro-2′H-[3,4′]bipyridinyl-1′-yl)-4-oxo-butyl]-7-methyl-3H-thieno[3,4-d]pyrimidin-4-one] | 0.37 | 3.6e-09 | 970 | 2.1e-10 | –
O=C(c1ccc(F)cc1)C1CCN(C(=O)CCCc2nn3cccc3c(=O)[nH]2)CC1 [Compound C142, 2-{4-[4-(4-Fluoro-benzoyl)-piperidin-1-yl]-4-oxo-butyl}-3H-pyrrolo[2,1-f][1,2,4]triazin-4-one] | 14 | 2e-08 | 7200 | 1.4e-08 | –
Cn1ncc2c(=O)[nH]c(CCCC(=O)N3CCC(Oc4ccc(C#N)cc4)CC3)nc21 [Compound C47, 4-{1-[4-(1-Methyl-4-oxo-4,5-dihydro-1H-pyrazolo[3,4-d]pyrimidin-6-yl)-butyryl]-piperidin-4-yloxy}-benzonitrile] | 110 | 4.5e-07 | 4400 | 4.1e-08 | –
Cn1cc(C(=O)C2CCN(C(=O)CCCc3cn4cc(F)cc4c(=O)[nH]3)CC2)cn1 [Compound C78, 7-Fluoro-3-{4-[4-(1-methyl-1H-pyrazole-4-carbonyl)-piperidin-1-yl]-4-oxo-butyl}-2H-pyrrolo[1,2-a]pyrazin-1-one] | 0.24 | 2.9e-09 | 1200 | 1.6e-10 | –
COc1ccc(C(=O)C2CCN(C(=O)CCCc3nn4cc(C)cc4c(=O)[nH]3)CC2)cc1C [Compound C165, 2-{4-[4-(4-Methoxy-3-methyl-benzoyl)-piperidin-1-yl]-4-oxo-butyl}-6-methyl-3H-pyrrolo[2,1-f][1,2,4]triazin-4-one] | 0.22 | 1.7e-09 | 2100 | 2.2e-10 | –
COc1ccc(C(=O)C2CCN(C(=O)CCCc3nn4cc(F)cc4c(=O)[nH]3)CC2)cc1 [Compound C39, 6-Fluoro-2-{4-[4-(4-methoxy-benzoyl)-piperidin-1-yl]-4-oxo-butyl}-3H-pyrrolo[2,1-f][1,2,4]triazin-4-one] | 0.18 | 3.1e-09 | 2100 | 3.7e-10 | –
CC(C)n1cc(C(=O)C2CCN(C(=O)CCCc3nn4cccc4c(=O)[nH]3)CC2)cn1 [Compound C219, 2-{4-[4-(1-Isopropyl-1H-pyrazole-4-carbonyl)-piperidin-1-yl]-4-oxo-butyl}-3H-pyrrolo[2,1-f][1,2,4]triazin-4-one] | 2 | 2.4e-08 | 25000 | 1.2e-09 | –
COc1ccc(C(=O)C2CCN(C(=O)CCCc3nn4cc(C)cc4c(=O)[nH]3)CC2)cc1F [Compound C158, 2-{4-[4-(3-Fluoro-4-methoxy-benzoyl)-piperidin-1-yl]-4-oxo-butyl}-6-methyl-3H-pyrrolo[2,1-f][1,2,4]triazin-4-one] | 0.44 | 4.4e-09 | 2100 | 9.2e-10 | –
Cc1ccc(C(=O)C2CCN(C(=O)CCCc3nc4c(cnn4C)c(=O)[nH]3)CC2)cc1 [Compound C234, 1-Methyl-6-{4-[4-(4-methyl-benzoyl)-piperidin-1-yl]-4-oxo-butyl}-1,5-dihydro-pyrazolo[3,4-d]pyrimidin-4-one] | 0.66 | 1.6e-08 | 18000 | 3e-10 | –
Cn1cc(C(=O)C2CCN(C(=O)CCCc3nn4c(F)c(F)cc4c(=O)[nH]3)CC2)cn1 [Compound C238, 6,7-Difluoro-2-{4-[4-(1-methyl-1H-pyrazole-4-carbonyl)-piperidin-1-yl]-4-oxo-butyl}-3H-pyrrolo[2,1-f][1,2,4]triazin-4-one] | 1.5 | 5.6e-08 | 4100 | 1.5e-09 | –
Cc1csc2c(=O)[nH]c(CCCC(=O)N3CCC(C(=O)c4ccc(C(C)(C)O)cc4)CC3)nc12 [Compound C133, 2-{4-{4-[4-(1-Hydroxy-1-methyl-ethyl)benzoyl]-1-piperidyl}-4-oxo-butyl}-7-methyl-3H-thieno[3,2-d]pyrimidin-4-one] | 2.1 | 6.4e-08 | 1000 | 7.5e-10 | –
Cn1ncc2c(=O)[nH]c(CCCC(=O)N3CCC(c4nnc(-c5ccccc5)o4)CC3)nc21 [Compound C46, 1-Methyl-6-{4-oxo-4[4-(5-phenyl-[1,3,4]oxadiazol-2-yl)-piperidin-1-yl]-butyl}-1,5-dihydro-pyrazolo[3,4-d]pyrimidin-4-one] | 2.9 | 6.6e-08 | 7200 | 2.4e-09 | –
Cc1csc2c(=O)[nH]c(CCCC(=O)N3CCC(C(=O)c4cnn(C)c4)CC3)nc12 [Compound C135, 7-Methyl-2-{4-[4-(1-methyl-1H-pyrazole-4-carbonyl)-piperidin-1-yl]-4-oxo-butyl}-3H-thieno[3,2-d]pyrimidin-4-one] | 0.49 | 3.9e-08 | 420 | 4.7e-10 | –
COc1ccc(C(=O)C2CCN(C(=O)CCCc3cn4c(C)cnc4c(=O)[nH]3)CC2)cc1 [Compound C32, 6-{4-[4-(4-Methoxybenzoyl)-1-piperidyl]-4-oxo-butyl}-3-methyl-7H-imidazo[1,2-a]pyrazin-8-one] | 0.12 | – | 17000 | 1.4e-10 | –
Cc1ccc2c(=O)[nH]c(CCCC(=O)N3CCC(C(=O)c4cnn(C(C)C)c4)CC3)cn12 [Compound C211, 3-{4-[4-(1-Isopropyl-1H-pyrazole-4-carbonyl)-piperidin-1-yl]-4-oxo-butyl}-6-methyl-2H-pyrrolo[1,2-a]pyrazin-1-one] | – | 1.4e-08 | 14000 | – | 9.55
COc1ccc(C(=O)C2CCN(C(=O)CCCc3cn4cccc4c(=O)[nH]3)CC2)cc1C [Compound C4, 3-{4-[4-(4-Methoxy-3-methyl-benzoyl)-piperidin-1-yl]-4-oxo-butyl}-2H-pyrrolo[1,2-a]pyrazin-1-one] | 0.14 | 3.4e-10 | – | 1.5e-10 | –
COc1ccc(C(=O)C2CCN(C(=O)CCCc3nc(C)c(C)c(=O)[nH]3)CC2)cn1 [Compound C241, 2-{4-[4-(6-Methoxy-pyridine-3-carbonyl)-piperidin-1-yl]-4-oxo-butyl}-5,6-dimethyl-3H-pyrimidin-4-one] | 11 | 3.5e-08 | – | 4.9e-09 | –
O=C(CCCc1nc2c(c(=O)[nH]1)COCC2)N1CCC(c2nnc(-c3ccccc3)o2)CC1 [Compound C196, 2-{4-Oxo-4-[4-(5-phenyl-[1,3,4]oxadiazol-2-yl)-piperidin-1-yl]-butyl}-3,5,7,8-tetrahydro-pyrano[4,3-d]pyrimidin-4-one] | – | 2e-06 | 6500 | – | 7.24
COc1ccc(C(=O)C2CCN(C(=O)CCCc3nncc4ccccc34)CC2)cc1 [Compound C250, 1-[4-(4-Methoxy-benzoyl)-piperidin-1-yl]-4-phthalazin-1-yl-butan-1-one] | 2.8 | 4.6e-08 | – | 1.1e-09 | –
CC(C)n1cc(C(=O)C2CCN(C(=O)CCCc3cn4c(F)ccc4c(=O)[nH]3)CC2)cn1 [Compound C212, 6-Fluoro-3-{4-[4-(1-isopropyl-1H-pyrazole-4-carbonyl)-piperidin-1-yl]-4-oxo-butyl}-2H-pyrrolo[1,2-a]pyrazin-1-one] | 0.39 | – | 5600 | 1.3e-09 | –
